# Results from patent publication US20250222009A1, “DINUCLEAR GOLD(I) COMPLEXES FOR TREATING CANCER” (KING FAHD UNIVERSITY OF PETROLEUM AND MINERALS, priority 2024, published 2025).
# Tested on: A549 (lung cancer cells)
# Experiment: MTT cytotoxicity assay, A549
# Type: cell-based, human
# Settings: 72 h
# Procedure: The human epithelial ovarian cancer A2780 cell line and its cisplatin-resistant clone A2780cis were obtained from Sigma-Aldrich (Milano, Italy). A2780cis cells were continuously exposed to 1 μM cisplatin to maintain cisplatin resistance. A549 cells (Human non-small cell lung cancer), MCF7 (metastatic breast cancer), PC3 (highly aggressive metastatic prostate cancer), and MG63 (osteosarcoma) were obtained from the American Type Culture Collection (ATCC). Cells were authenticated in laboratory using the PowerPlex 16 HS System. A2780, A2780cis, and PC3 cells were cultured in RPMI-1640 medium; MG63 and MCF7 cells were cultured in DMEM, and A549 cells were cultured in F12 NUT-MIX. The culture medium contained about 10% fetal bovine serum (FBS) (Gibco, Thermo Fisher Scientific, Monza, Italy), about 1% (v/v) of penicillin (10,000 units/mL)-streptomycin (10 mg/mL), and about 1% (v/v) L-glutamine (200 mM) (all from Sigma-Aldrich). Cells were cultured at 37° C. in a 5% CO2, fully humidified atmosphere.
# 2.5×10^3 (PC3, MG63, MCF7) or 4.0×10^3 (A2780, A2780cis, A549) cells were seeded in 96-well microplates in 100 μL culture medium. Cells, allowed to adhere for 24 h, were then treated in triplicate with increasing concentrations of gold compounds. Cisplatin was included as a reference drug. Cell viability was evaluated using 3-(4,5-dimethylthiazol-2-yl)-2,5-diphenyltetrazolium bromide (MTT) assay (Sigma-Aldrich) after 72 h of treatment. Half maximal inhibitory concentrations (IC50), IC25, and IC75 were calculated using the CalcuSyn software version 2 (Biosoft, Ferguson, MO, USA) (See: Chou, T. C.; Talalay, P. Quantitative Analysis of Dose-Effect Relationships: The Combined Effects of Multiple Drugs or Enzyme Inhibitors. Adv. Enzyme Regul. 1984, 22, 27-55, which is incorporated herein by reference in its entirety). Fold resistance was calculated as the ratio of the IC50 of the A2780cis to that of the parental cell line A2780. Alternatively, cell viability was assayed by crystal violet staining (See: Feoktistova, M.; Geserick, P.; Leverkus, M. Crystal Violet Assay for Determining Viability of Cultured Cells. Cold Spring Harb Protoc 2016, 2016, pdb.prot087379, which is incorporated herein by reference in its entirety). Alternatively, after drug treatment, the culture Medium was removed, cells washed, fixed, and stained, and the Crystal Violet solution lasted 20 minutes (See: Sulaiman, A. A. A.; Casagrande, N.; Borghese, C.; Corona, G.; Isab, A. A.; Ahmad, S.; Aldinucci, D.; Altaf M. Design, Synthesis, and Preclinical Activity in Ovarian Cancer Models of New Phosphanegold(I)—N-Heterocyclic Carbene Complexes. J Med Chem 2022, 65, 14424-14440, which is incorporated herein by reference in its entirety).
structure (smiles),measurement,setting,value
"CC(C)c1cccc(C(C)C)c1-n1ccn(-c2c(C(C)C)cccc2C(C)C)[c]1=[Au-][P+](CCNCC[P+]([Au-]=[c]1n(-c2c(C(C)C)cccc2C(C)C)ccn1-c1c(C(C)C)cccc1C(C)C)(C1CCCCC1)C1CCCCC1)(C1CCCCC1)C1CCCCC1 [Complex 3, [(Au(IPr))2(C28H24P2)](PF6)2]",IC25 A549,,60 nM
same,IC75 A549,,600 nM
same,IC50,mean (SD),130 nM
